Results as given in ChEMBL document CHEMBL4477225, “Development of a cell viability assay to assess drug metabolite structure-toxicity relationships” (Bioorg Med Chem Lett, 2016).

Experiments:
Assay type in all cases: ADME, cell-based
Conditions in all cases: recombinant enzyme
[1] = target: T1, Cytochrome P450 2C9 (Homo sapiens, UniProt P11712); assay: Drug activation in human Hep3B cells assessed as human CYP2C9-mediated drug metabolism-induced cytotoxicity measured as decrease in cell viability at 34.1 uM pre-incubated with BSO for 18 hrs followed by incubation with compound for 3 hrs in presence of NADPH measured after 24 hrs in absence of compound, CYP3A4 and NADPH by cell titer-glo luminescence assay relative to BSO alone
[2] = target: T2, Cytochrome P450 2D6 (Homo sapiens, UniProt P10635); assay: Drug activation in human Hep3B cells assessed as human CYP2D6-mediated drug metabolism-induced cytotoxicity measured as decrease in cell viability at 33.9 uM pre-incubated with BSO for 18 hrs followed by incubation with compound for 3 hrs in presence of NADPH measured after 24 hrs in absence of compound, CYP3A4 and NADPH by cell titer-glo luminescence assay relative to BSO alone
[3] = target: T3, Cytochrome P450 3A4 (Homo sapiens, UniProt P08684); assay: Drug activation in human Hep3B cells assessed as human CYP3A4-mediated drug metabolism-induced cytotoxicity measured as decrease in cell viability at 25.2 uM pre-incubated with BSO for 18 hrs followed by incubation with compound for 3 hrs in presence of NADPH measured after 24 hrs in absence of compound, CYP3A4 and NADPH by cell titer-glo luminescence assay relative to BSO alone
[4] = target: T2, Cytochrome P450 2D6; assay: Drug activation in human Hep3B cells assessed as human CYP2D6-mediated drug metabolism-induced cytotoxicity measured as decrease in cell viability at 3 uM pre-incubated with BSO for 18 hrs followed by incubation with compound for 3 hrs in presence of NADPH measured after 24 hrs in absence of compound, CYP3A4 and NADPH by cell titer-glo luminescence assay relative to BSO alone
[5] = target: T1, Cytochrome P450 2C9; assay: Drug activation in human Hep3B cells assessed as human CYP2C9-mediated drug metabolism-induced cytotoxicity measured as decrease in cell viability at 25.3 uM pre-incubated with BSO for 18 hrs followed by incubation with compound for 3 hrs in presence of NADPH measured after 24 hrs in absence of compound, CYP3A4 and NADPH by cell titer-glo luminescence assay relative to BSO alone
[6] = target: T3, Cytochrome P450 3A4; assay: Drug activation in human Hep3B cells assessed as human CYP3A4-mediated drug metabolism-induced cytotoxicity measured as decrease in cell viability at 2.2 uM pre-incubated with BSO for 18 hrs followed by incubation with compound for 3 hrs in presence of NADPH measured after 24 hrs in absence of compound, CYP3A4 and NADPH by cell titer-glo luminescence assay relative to BSO alone
[7] = target: T1, Cytochrome P450 2C9; assay: Drug activation in human Hep3B cells assessed as human CYP2C9-mediated drug metabolism-induced cytotoxicity measured as decrease in cell viability at 2.8 uM pre-incubated with BSO for 18 hrs followed by incubation with compound for 3 hrs in presence of NADPH measured after 24 hrs in absence of compound, CYP3A4 and NADPH by cell titer-glo luminescence assay relative to BSO alone
[8] = target: T2, Cytochrome P450 2D6; assay: Drug activation in human Hep3B cells assessed as human CYP2D6-mediated drug metabolism-induced cytotoxicity measured as decrease in cell viability at 3.4 uM pre-incubated with BSO for 18 hrs followed by incubation with compound for 3 hrs in presence of NADPH measured after 24 hrs in absence of compound, CYP3A4 and NADPH by cell titer-glo luminescence assay relative to BSO alone
[9] = target: T3, Cytochrome P450 3A4; assay: Drug activation in human Hep3B cells assessed as human CYP3A4-mediated drug metabolism-induced cytotoxicity measured as decrease in cell viability at 0.3 uM pre-incubated with BSO for 18 hrs followed by incubation with compound for 3 hrs in presence of NADPH measured after 24 hrs in absence of compound, CYP3A4 and NADPH by cell titer-glo luminescence assay relative to BSO alone
[10] = target: T1, Cytochrome P450 2C9; assay: Drug activation in human Hep3B cells assessed as human CYP2C9-mediated drug metabolism-induced cytotoxicity measured as decrease in cell viability at 28.5 uM pre-incubated with BSO for 18 hrs followed by incubation with compound for 3 hrs in presence of NADPH measured after 24 hrs in absence of compound, CYP3A4 and NADPH by cell titer-glo luminescence assay relative to BSO alone
[11] = target: T2, Cytochrome P450 2D6; assay: Drug activation in human Hep3B cells assessed as human CYP2D6-mediated drug metabolism-induced cytotoxicity measured as decrease in cell viability at 6.8 uM pre-incubated with BSO for 18 hrs followed by incubation with compound for 3 hrs in presence of NADPH measured after 24 hrs in absence of compound, CYP3A4 and NADPH by cell titer-glo luminescence assay relative to BSO alone
[12] = target: T3, Cytochrome P450 3A4; assay: Drug activation in human Hep3B cells assessed as human CYP3A4-mediated drug metabolism-induced cytotoxicity measured as decrease in cell viability at 6.5 uM pre-incubated with BSO for 18 hrs followed by incubation with compound for 3 hrs in presence of NADPH measured after 24 hrs in absence of compound, CYP3A4 and NADPH by cell titer-glo luminescence assay relative to BSO alone
[13] = target: T3, Cytochrome P450 3A4; assay: Drug activation in human Hep3B cells assessed as human CYP3A4-mediated drug metabolism-induced cytotoxicity measured as decrease in cell viability at 80.2 uM pre-incubated with BSO for 18 hrs followed by incubation with compound for 3 hrs in presence of NADPH measured after 24 hrs in absence of compound, CYP3A4 and NADPH by cell titer-glo luminescence assay relative to BSO alone
[14] = target: T2, Cytochrome P450 2D6; assay: Drug activation in human Hep3B cells assessed as human CYP2D6-mediated drug metabolism-induced cytotoxicity measured as decrease in cell viability at 129.2 uM pre-incubated with BSO for 18 hrs followed by incubation with compound for 3 hrs in presence of NADPH measured after 24 hrs in absence of compound, CYP3A4 and NADPH by cell titer-glo luminescence assay relative to BSO alone
[15] = target: T1, Cytochrome P450 2C9; assay: Drug activation in human Hep3B cells assessed as human CYP2C9-mediated drug metabolism-induced cytotoxicity measured as decrease in cell viability at 210.8 uM pre-incubated with BSO for 18 hrs followed by incubation with compound for 3 hrs in presence of NADPH measured after 24 hrs in absence of compound, CYP3A4 and NADPH by cell titer-glo luminescence assay relative to BSO alone
[16] = target: T3, Cytochrome P450 3A4; assay: Drug activation in human Hep3B cells assessed as human CYP3A4-mediated drug metabolism-induced cytotoxicity measured as decrease in cell viability at 7.6 uM pre-incubated with BSO for 18 hrs followed by incubation with compound for 3 hrs in presence of NADPH measured after 24 hrs in absence of compound, CYP3A4 and NADPH by cell titer-glo luminescence assay relative to BSO alone
[17] = target: T1, Cytochrome P450 2C9; assay: Drug activation in human Hep3B cells assessed as human CYP2C9-mediated drug metabolism-induced cytotoxicity measured as decrease in cell viability at 9.7 uM pre-incubated with BSO for 18 hrs followed by incubation with compound for 3 hrs in presence of NADPH measured after 24 hrs in absence of compound, CYP3A4 and NADPH by cell titer-glo luminescence assay relative to BSO alone
[18] = target: T2, Cytochrome P450 2D6; assay: Drug activation in human Hep3B cells assessed as human CYP2D6-mediated drug metabolism-induced cytotoxicity measured as decrease in cell viability at 12.2 uM pre-incubated with BSO for 18 hrs followed by incubation with compound for 3 hrs in presence of NADPH measured after 24 hrs in absence of compound, CYP3A4 and NADPH by cell titer-glo luminescence assay relative to BSO alone
[19] = target: T1, Cytochrome P450 2C9; assay: Drug activation in human Hep3B cells assessed as human CYP2C9-mediated drug metabolism-induced cytotoxicity measured as decrease in cell viability at 7.6 uM pre-incubated with BSO for 18 hrs followed by incubation with compound for 3 hrs in presence of NADPH measured after 24 hrs in absence of compound, CYP3A4 and NADPH by cell titer-glo luminescence assay relative to BSO alone
[20] = target: T2, Cytochrome P450 2D6; assay: Drug activation in human Hep3B cells assessed as human CYP2D6-mediated drug metabolism-induced cytotoxicity measured as decrease in cell viability at 12.8 uM pre-incubated with BSO for 18 hrs followed by incubation with compound for 3 hrs in presence of NADPH measured after 24 hrs in absence of compound, CYP3A4 and NADPH by cell titer-glo luminescence assay relative to BSO alone
[21] = target: T3, Cytochrome P450 3A4; assay: Drug activation in human Hep3B cells assessed as human CYP3A4-mediated drug metabolism-induced cytotoxicity measured as decrease in cell viability at 9.6 uM pre-incubated with BSO for 18 hrs followed by incubation with compound for 3 hrs in presence of NADPH measured after 24 hrs in absence of compound, CYP3A4 and NADPH by cell titer-glo luminescence assay relative to BSO alone
[22] = target: T1, Cytochrome P450 2C9; assay: Drug activation in human Hep3B cells assessed as human CYP2C9-mediated drug metabolism-induced cytotoxicity measured as decrease in cell viability at 136.1 uM pre-incubated with BSO for 18 hrs followed by incubation with compound for 3 hrs in presence of NADPH measured after 24 hrs in absence of compound, CYP3A4 and NADPH by cell titer-glo luminescence assay relative to BSO alone
[23] = target: T2, Cytochrome P450 2D6; assay: Drug activation in human Hep3B cells assessed as human CYP2D6-mediated drug metabolism-induced cytotoxicity measured as decrease in cell viability at 27.8 uM pre-incubated with BSO for 18 hrs followed by incubation with compound for 3 hrs in presence of NADPH measured after 24 hrs in absence of compound, CYP3A4 and NADPH by cell titer-glo luminescence assay relative to BSO alone
[24] = target: T3, Cytochrome P450 3A4; assay: Drug activation in human Hep3B cells assessed as human CYP3A4-mediated drug metabolism-induced cytotoxicity measured as decrease in cell viability at 20.4 uM pre-incubated with BSO for 18 hrs followed by incubation with compound for 3 hrs in presence of NADPH measured after 24 hrs in absence of compound, CYP3A4 and NADPH by cell titer-glo luminescence assay relative to BSO alone
[25] = target: T3, Cytochrome P450 3A4; assay: Drug activation in human Hep3B cells assessed as human CYP3A4-mediated drug metabolism-induced cytotoxicity measured as decrease in cell viability at 8.5 uM pre-incubated with BSO for 18 hrs followed by incubation with compound for 3 hrs in presence of NADPH measured after 24 hrs in absence of compound, CYP3A4 and NADPH by cell titer-glo luminescence assay relative to BSO alone
[26] = target: T2, Cytochrome P450 2D6; assay: Drug activation in human Hep3B cells assessed as human CYP2D6-mediated drug metabolism-induced cytotoxicity measured as decrease in cell viability at 15.2 uM pre-incubated with BSO for 18 hrs followed by incubation with compound for 3 hrs in presence of NADPH measured after 24 hrs in absence of compound, CYP3A4 and NADPH by cell titer-glo luminescence assay relative to BSO alone
[27] = target: T1, Cytochrome P450 2C9; assay: Drug activation in human Hep3B cells assessed as human CYP2C9-mediated drug metabolism-induced cytotoxicity measured as decrease in cell viability at 40.5 uM pre-incubated with BSO for 18 hrs followed by incubation with compound for 3 hrs in presence of NADPH measured after 24 hrs in absence of compound, CYP3A4 and NADPH by cell titer-glo luminescence assay relative to BSO alone
[28] = target: T3, Cytochrome P450 3A4; assay: Drug activation in human Hep3B cells assessed as human CYP3A4-mediated drug metabolism-induced cytotoxicity measured as decrease in cell viability at 154.5 uM pre-incubated with BSO for 18 hrs followed by incubation with compound for 3 hrs in presence of NADPH measured after 24 hrs in absence of compound, CYP3A4 and NADPH by cell titer-glo luminescence assay relative to BSO alone
[29] = target: T2, Cytochrome P450 2D6; assay: Drug activation in human Hep3B cells assessed as human CYP2D6-mediated drug metabolism-induced cytotoxicity measured as decrease in cell viability at 188.9 uM pre-incubated with BSO for 18 hrs followed by incubation with compound for 3 hrs in presence of NADPH measured after 24 hrs in absence of compound, CYP3A4 and NADPH by cell titer-glo luminescence assay relative to BSO alone
[30] = target: T1, Cytochrome P450 2C9; assay: Drug activation in human Hep3B cells assessed as human CYP2C9-mediated drug metabolism-induced cytotoxicity measured as decrease in cell viability at 150 uM pre-incubated with BSO for 18 hrs followed by incubation with compound for 3 hrs in presence of NADPH measured after 24 hrs in absence of compound, CYP3A4 and NADPH by cell titer-glo luminescence assay relative to BSO alone

T2 sequence (P10635 whole entry): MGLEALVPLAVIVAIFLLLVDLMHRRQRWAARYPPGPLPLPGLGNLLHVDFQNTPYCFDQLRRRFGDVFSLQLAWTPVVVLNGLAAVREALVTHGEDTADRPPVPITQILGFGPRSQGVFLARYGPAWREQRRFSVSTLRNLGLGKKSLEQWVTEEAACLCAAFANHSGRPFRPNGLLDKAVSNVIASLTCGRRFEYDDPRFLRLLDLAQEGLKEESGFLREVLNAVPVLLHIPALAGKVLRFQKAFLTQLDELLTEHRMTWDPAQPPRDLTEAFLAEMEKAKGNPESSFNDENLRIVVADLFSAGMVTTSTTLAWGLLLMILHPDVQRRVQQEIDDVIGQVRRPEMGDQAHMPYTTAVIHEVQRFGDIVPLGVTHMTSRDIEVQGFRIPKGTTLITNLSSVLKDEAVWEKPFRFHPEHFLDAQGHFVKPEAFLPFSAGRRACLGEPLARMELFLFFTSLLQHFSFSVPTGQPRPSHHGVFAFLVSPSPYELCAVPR
T1 sequence (P11712 whole entry): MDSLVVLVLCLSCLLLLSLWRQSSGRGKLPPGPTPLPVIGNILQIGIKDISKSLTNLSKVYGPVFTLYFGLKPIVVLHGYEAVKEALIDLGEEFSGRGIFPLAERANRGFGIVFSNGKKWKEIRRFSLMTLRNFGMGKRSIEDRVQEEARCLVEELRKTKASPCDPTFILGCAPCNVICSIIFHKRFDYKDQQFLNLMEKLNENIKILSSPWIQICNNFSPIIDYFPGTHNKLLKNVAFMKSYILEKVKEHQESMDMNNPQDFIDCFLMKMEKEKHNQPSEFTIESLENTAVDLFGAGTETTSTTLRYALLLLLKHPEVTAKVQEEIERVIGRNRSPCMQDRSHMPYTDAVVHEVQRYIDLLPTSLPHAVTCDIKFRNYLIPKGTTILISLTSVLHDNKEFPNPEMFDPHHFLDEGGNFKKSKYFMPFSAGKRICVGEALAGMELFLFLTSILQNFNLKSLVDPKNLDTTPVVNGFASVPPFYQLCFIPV
T3 sequence (P08684 whole entry): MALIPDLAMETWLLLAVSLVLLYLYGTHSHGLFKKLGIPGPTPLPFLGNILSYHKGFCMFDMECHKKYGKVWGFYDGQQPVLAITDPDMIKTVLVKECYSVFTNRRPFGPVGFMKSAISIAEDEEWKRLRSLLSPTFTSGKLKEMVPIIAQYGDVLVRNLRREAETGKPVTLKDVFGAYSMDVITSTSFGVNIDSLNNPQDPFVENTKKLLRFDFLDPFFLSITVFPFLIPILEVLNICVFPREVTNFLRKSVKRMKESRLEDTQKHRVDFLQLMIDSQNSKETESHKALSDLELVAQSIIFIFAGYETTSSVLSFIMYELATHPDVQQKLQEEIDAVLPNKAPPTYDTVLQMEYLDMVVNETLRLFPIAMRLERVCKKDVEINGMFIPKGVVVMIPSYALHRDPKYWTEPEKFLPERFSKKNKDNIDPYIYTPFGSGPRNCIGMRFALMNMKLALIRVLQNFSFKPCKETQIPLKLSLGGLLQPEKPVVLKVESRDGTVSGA

For COc1cc(C(=O)NS(=O)(=O)c2ccccc2C)ccc1Cc1cn(C)c2ccc(NC(=O)OC3CCCC3)cc12 [ZAFIRLUKAST], the “fold change (FC)” value [1] was 1.4, the “fold change (FC)” value [2] was 1.4 and the “fold change (FC)” value [3] was 1.9.

In the case of CC(C)NCC(O)c1ccc(O)c(O)c1 (stereo not given) [ISOPROTERENOL], the “fold change (FC)” value [4] is reported as 100.1, the “fold change (FC)” value [5] is reported as 11.8 and the “fold change (FC)” value [6] is reported as 135.8.

With CC(CCc1ccc(O)cc1)NCCc1ccc(O)c(O)c1 (stereo not given) [DOBUTAMINE] the “fold change (FC)” value [7] was 108.1, the “fold change (FC)” value [8] was 89.2 and the “fold change (FC)” value [9] was 1023.9.

For CC1=C(CC(=O)O)c2cc(F)ccc2/C1=C\c1ccc([S+](C)[O-])cc1 (stereo not given), the “fold change (FC)” value [10] was 1.6, the “fold change (FC)” value [11] was 6.7 and the “fold change (FC)” value [12] was 6.9.

For CN(C)C/C=C(/c1ccc(Br)cc1)c1cccnc1 [ZIMELDINE], the “fold change (FC)” value [13] was 2.8, the “fold change (FC)” value [14] was 1.8 and the “fold change (FC)” value [15] was 1.1.

C1CCC(C(CC2CCCCN2)C2CCCCC2)CC1 (stereo not given) [PERHEXILINE] was tested, and the “fold change (FC)” value [16] was 0.7, the “fold change (FC)” value [17] was 0.5 and the “fold change (FC)” value [18] was 0.4.

In the case of CCC[C@@]1(CCc2ccccc2)CC(O)=C([C@H](CC)c2cccc(NS(=O)(=O)c3ccc(C(F)(F)F)cn3)c2)C(=O)O1, the “fold change (FC)” value [19] is reported as 1.6, the “fold change (FC)” value [20] is reported as 1 and the “fold change (FC)” value [21] is reported as 1.3.

CCc1nn(CCCN2CCN(c3cccc(Cl)c3)CC2)c(=O)n1CCOc1ccccc1 [NEFAZODONE] was tested, and the “fold change (FC)” value [22] was 0.6, the “fold change (FC)” value [23] was 3 and the “fold change (FC)” value [24] was 4.1.

Cc1c(C)c2c(c(C)c1O)CCC(C)(COc1ccc(CC3SC(=O)NC3=O)cc1)O2 (stereo not given) [TROGLITAZONE] was tested, and the “fold change (FC)” value [25] was 5.5, the “fold change (FC)” value [26] was 3.1 and the “fold change (FC)” value [27] was 1.2.

CS(=O)(=O)CCNCc1ccc(-c2ccc3ncnc(Nc4ccc(OCc5cccc(F)c5)c(Cl)c4)c3c2)o1 [LAPATINIB] was tested, and the “fold change (FC)” value [28] was 0.3, the “fold change (FC)” value [29] was 0.2 and the “fold change (FC)” value [30] was 0.3.
